Where two headings read alike, the source gives them in different places.
How the values were obtained:
Type in all cases: in vivo
[1] = tested on: crabgrass, Large (large crabgrass, Digitaria sanguinalis); assay: Test A pre-/postemergence greenhouse herbicide test; settings: Digitaria sanguinalis, 240 h, 0 to 100 scale (0 no effect, 100 complete control), approx. 10 d, read-out: Plant response rating, Crabgrass, Large; for pest or weed control at 125 g/ha: 125 g ai/ha; for pest or weed control at 500 g/ha: 500 g ai/ha
How it was run: (§1)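 Seeds sown in loam–sand blend received a directed preemergence soil spray; postemergence spray was applied at the same time to plants 2–10 cm tall at one- to two-leaf stage. Compounds were in non-phytotoxic solvent with surfactant. Visual injury versus untreated controls after ~10 d in greenhouse, 0–100 scale (100 = complete control).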

[2] = tested on: pigweed (Amaranthus retroflexus); assay: as above; settings: Amaranthus retroflexus, 240 h, 0 to 100 scale (0 no effect, 100 complete control), approx. 10 d, read-out: Plant response rating, Pigweed; for pest or weed control at 125 g/ha: 125 g ai/ha; for pest or weed control at 500 g/ha: 500 g ai/ha
How it was run: as §1

[3] = tested on: wheat (Triticum aestivum); assay: as above; settings: Triticum aestivum, 240 h, 0 to 100 scale (0 no effect, 100 complete control), approx. 10 d, read-out: Plant response rating, Wheat; for plant injury at 125 g/ha: 125 g ai/ha; for plant injury at 500 g/ha: 500 g ai/ha
How it was run: as §1

[4] = tested on: barnyardgrass (Echinochloa crus-galli); assay: Test C pre-/postemergence greenhouse herbicide test; settings: Barnyardgrass, Postemergence
How it was run: (§2)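 Plant response is scored on a 0–100 scale, where 100 means complete control, by visual comparison with controls 13 to 15 d after greenhouse treatment. Applications are made pre- and postemergence using a surfactant-containing, non-phytotoxic solvent formulation.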

[5] = tested on: blackgrass (Alopecurus myosuroides); assay: as above; settings: Alopecurus myosuroides, post-emergence, Blackgrass, Postemergence, read-out: Plant response rating
How it was run: as §2

corn (Zea mays) = assay: as above; settings: Zea mays, post-emergence, Corn, Postemergence, read-out: Plant response rating
How it was run: as §2

[6] = tested on: crabgrass, Large (large crabgrass, Digitaria sanguinalis); assay: as above; settings: Digitaria sanguinalis, post-emergence, Crabgrass, Large, Postemergence, read-out: Plant response rating
How it was run: as §2

[7] = tested on: johnsongrass (Sorghum halepense); assay: as above; settings: Sorghum halepense, post-emergence, Johnsongrass, Postemergence, read-out: Plant response rating
How it was run: as §2

soybean (Glycine max) = assay: as above; settings: Glycine max, post-emergence, Soybean, Postemergence, read-out: Plant response rating
How it was run: as §2

[8] = tested on: wheat (winter wheat, Triticum aestivum); assay: as above; settings: Triticum aestivum, post-emergence, Wheat, Postemergence, read-out: Plant response rating
How it was run: as §2

Cc1cc(Oc2ccnc(C(F)(F)F)c2)nn(-c2ccc(C(F)(F)F)cc2)c1=O [Compound 6, 4-methyl-2-[4-(trifluoromethyl)phenyl]-6-[[2-(trifluoromethyl)-4-pyridinyl]oxy]-3(2H)-pyridazinone] was tested, and the pest or weed control at 125 g/ha ([1]; post-emergence, Postemergence) was 80%, the pest or weed control at 500 g/ha ([1]; post-emergence, Postemergence) was 90% and the pest or weed control at 125 g/ha ([1]; pre-emergence, Preemergence) was 100%. The pest or weed control at 500 g/ha ([1]; pre-emergence, Preemergence) was 100%, the pest or weed control at 125 g/ha ([2]; post-emergence, Postemergence) was 100% and the pest or weed control at 500 g/ha ([2]; post-emergence, Postemergence) was 100%. The pest or weed control at 125 g/ha ([2]; pre-emergence, Preemergence) was 100%, the pest or weed control at 500 g/ha ([2]; pre-emergence, Preemergence) was 100% and the plant injury at 125 g/ha ([3]; post-emergence, Postemergence) was 40%. It also gave a plant injury at 500 g/ha ([3]; post-emergence, Postemergence) of 50%, a plant injury at 125 g/ha ([3]; pre-emergence, Preemergence) of 10% and a plant injury at 500 g/ha ([3]; pre-emergence, Preemergence) of 30%. The Plant response rating ([4]; 31 g ai/ha) was 10, the Plant response rating ([4]; 62 g ai/ha) was 10 and the Plant response rating ([4]; 125 g ai/ha) was 35. The Plant response rating ([4]; 250 g ai/ha) was 65, the pest or weed control at 31 g/ha ([5]; 31 g ai/ha) was 30% and the pest or weed control at 62 g/ha ([5]; 62 g ai/ha) was 35%. It also gave a pest or weed control at 125 g/ha ([5]; 125 g ai/ha) of 35%, a pest or weed control at 250 g/ha ([5]; 250 g ai/ha) of 50% and a plant injury at 31 g/ha (corn (Zea mays); 31 g ai/ha) of 15%. It also gave a plant injury at 62 g/ha (corn (Zea mays); 62 g ai/ha) of 25%, a plant injury at 125 g/ha (corn (Zea mays); 125 g ai/ha) of 25% and a plant injury at 250 g/ha (corn (Zea mays); 250 g ai/ha) of 35%. It also gave a pest or weed control at 31 g/ha ([6]; 31 g ai/ha) of 10%, a pest or weed control at 62 g/ha ([6]; 62 g ai/ha) of 20% and a pest or weed control at 125 g/ha ([6]; 125 g ai/ha) of 30%. The pest or weed control at 250 g/ha ([6]; 250 g ai/ha) was 35%, the pest or weed control at 31 g/ha ([7]; 31 g ai/ha) was 5% and the pest or weed control at 62 g/ha ([7]; 62 g ai/ha) was 10%. It also gave a pest or weed control at 125 g/ha ([7]; 125 g ai/ha) of 20%, a pest or weed control at 250 g/ha ([7]; 250 g ai/ha) of 40% and a plant injury at 31 g/ha (soybean (Glycine max); 31 g ai/ha) of 35%. For the same compound, the plant injury at 62 g/ha (soybean (Glycine max); 62 g ai/ha) was 50%, the plant injury at 125 g/ha (soybean (Glycine max); 125 g ai/ha) was 50% and the plant injury at 250 g/ha (soybean (Glycine max); 250 g ai/ha) was 65%. The plant injury at 31 g/ha ([8]; 31 g ai/ha) was 10%, the plant injury at 62 g/ha ([8]; 62 g ai/ha) was 10% and the plant injury at 125 g/ha ([8]; 125 g ai/ha) was 15%. It also gave a plant injury at 250 g/ha ([8]; 250 g ai/ha) of 25%.

— patent US10202361B2, “Pyridazinones as herbicides” (E I DU PONT DE NEMOURS AND COMPANY, priority 2014, dated 2019)
